Here are results for ten molecules from the Kinase Knowledgebase extract (Sharma et al. 2016).

Among the targets are PIK3CD (Human) (UniProt O00329); PIK3CA (human) (UniProt P42336); PIK3CB (Human) (UniProt P42338); PIK3CG (human) (UniProt P48736).
Experiment in all cases: Enzyme Assay

PIK3CA (human), sequence (P42336 whole entry, looked up): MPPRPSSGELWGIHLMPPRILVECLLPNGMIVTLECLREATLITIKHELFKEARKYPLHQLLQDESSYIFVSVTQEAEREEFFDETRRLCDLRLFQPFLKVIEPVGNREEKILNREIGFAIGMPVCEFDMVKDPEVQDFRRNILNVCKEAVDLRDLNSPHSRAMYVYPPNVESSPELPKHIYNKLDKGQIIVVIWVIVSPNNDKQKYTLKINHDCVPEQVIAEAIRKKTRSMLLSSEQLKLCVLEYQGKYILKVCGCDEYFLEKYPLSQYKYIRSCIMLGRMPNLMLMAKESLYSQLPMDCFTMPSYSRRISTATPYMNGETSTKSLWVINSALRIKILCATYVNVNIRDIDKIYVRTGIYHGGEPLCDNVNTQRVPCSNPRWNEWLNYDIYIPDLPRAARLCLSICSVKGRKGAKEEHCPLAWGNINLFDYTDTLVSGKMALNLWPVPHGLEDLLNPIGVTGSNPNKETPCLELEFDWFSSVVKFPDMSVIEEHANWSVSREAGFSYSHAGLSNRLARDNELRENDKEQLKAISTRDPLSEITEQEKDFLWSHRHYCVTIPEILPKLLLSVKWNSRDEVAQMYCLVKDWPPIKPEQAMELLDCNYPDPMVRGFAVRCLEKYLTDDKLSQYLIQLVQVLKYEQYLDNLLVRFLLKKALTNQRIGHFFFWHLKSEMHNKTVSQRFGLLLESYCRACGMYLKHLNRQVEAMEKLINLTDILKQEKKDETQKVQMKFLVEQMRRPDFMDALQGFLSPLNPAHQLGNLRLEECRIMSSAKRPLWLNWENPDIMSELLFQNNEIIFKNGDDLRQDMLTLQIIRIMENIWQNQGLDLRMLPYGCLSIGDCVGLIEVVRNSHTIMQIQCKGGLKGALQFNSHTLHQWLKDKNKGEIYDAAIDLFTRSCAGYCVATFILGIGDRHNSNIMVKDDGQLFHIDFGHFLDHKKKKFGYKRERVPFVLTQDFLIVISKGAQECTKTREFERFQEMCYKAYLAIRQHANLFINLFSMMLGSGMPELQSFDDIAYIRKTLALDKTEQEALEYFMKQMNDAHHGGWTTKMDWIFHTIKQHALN
PIK3CD (Human), sequence (O00329 whole entry, looked up): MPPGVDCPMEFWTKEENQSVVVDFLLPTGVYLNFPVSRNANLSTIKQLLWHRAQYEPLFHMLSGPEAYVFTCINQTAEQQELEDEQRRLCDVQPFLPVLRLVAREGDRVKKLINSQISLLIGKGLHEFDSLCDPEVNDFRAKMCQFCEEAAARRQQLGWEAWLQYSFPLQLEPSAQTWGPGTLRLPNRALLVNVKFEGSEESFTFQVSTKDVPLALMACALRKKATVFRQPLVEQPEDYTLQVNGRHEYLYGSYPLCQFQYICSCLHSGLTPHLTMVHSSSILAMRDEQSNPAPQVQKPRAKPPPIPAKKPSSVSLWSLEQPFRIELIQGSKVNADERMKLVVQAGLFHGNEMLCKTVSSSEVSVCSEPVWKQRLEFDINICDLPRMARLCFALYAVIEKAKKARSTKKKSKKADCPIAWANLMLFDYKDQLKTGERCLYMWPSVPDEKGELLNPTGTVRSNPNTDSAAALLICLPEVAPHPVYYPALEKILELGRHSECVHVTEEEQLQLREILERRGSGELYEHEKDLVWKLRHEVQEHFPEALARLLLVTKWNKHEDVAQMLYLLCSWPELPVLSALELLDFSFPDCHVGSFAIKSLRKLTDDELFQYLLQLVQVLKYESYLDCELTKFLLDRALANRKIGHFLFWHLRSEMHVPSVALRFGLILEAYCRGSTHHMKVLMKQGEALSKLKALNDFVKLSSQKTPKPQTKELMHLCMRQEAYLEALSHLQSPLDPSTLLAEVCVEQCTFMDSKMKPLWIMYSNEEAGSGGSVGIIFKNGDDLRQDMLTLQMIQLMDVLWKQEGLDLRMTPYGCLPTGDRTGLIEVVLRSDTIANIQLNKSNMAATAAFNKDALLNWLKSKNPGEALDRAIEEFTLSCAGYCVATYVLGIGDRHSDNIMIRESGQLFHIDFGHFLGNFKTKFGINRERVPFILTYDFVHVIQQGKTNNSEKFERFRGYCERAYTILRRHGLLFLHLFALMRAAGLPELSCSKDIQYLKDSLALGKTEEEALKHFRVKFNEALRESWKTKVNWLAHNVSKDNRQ
PIK3CB (Human), sequence (P42338 whole entry, looked up): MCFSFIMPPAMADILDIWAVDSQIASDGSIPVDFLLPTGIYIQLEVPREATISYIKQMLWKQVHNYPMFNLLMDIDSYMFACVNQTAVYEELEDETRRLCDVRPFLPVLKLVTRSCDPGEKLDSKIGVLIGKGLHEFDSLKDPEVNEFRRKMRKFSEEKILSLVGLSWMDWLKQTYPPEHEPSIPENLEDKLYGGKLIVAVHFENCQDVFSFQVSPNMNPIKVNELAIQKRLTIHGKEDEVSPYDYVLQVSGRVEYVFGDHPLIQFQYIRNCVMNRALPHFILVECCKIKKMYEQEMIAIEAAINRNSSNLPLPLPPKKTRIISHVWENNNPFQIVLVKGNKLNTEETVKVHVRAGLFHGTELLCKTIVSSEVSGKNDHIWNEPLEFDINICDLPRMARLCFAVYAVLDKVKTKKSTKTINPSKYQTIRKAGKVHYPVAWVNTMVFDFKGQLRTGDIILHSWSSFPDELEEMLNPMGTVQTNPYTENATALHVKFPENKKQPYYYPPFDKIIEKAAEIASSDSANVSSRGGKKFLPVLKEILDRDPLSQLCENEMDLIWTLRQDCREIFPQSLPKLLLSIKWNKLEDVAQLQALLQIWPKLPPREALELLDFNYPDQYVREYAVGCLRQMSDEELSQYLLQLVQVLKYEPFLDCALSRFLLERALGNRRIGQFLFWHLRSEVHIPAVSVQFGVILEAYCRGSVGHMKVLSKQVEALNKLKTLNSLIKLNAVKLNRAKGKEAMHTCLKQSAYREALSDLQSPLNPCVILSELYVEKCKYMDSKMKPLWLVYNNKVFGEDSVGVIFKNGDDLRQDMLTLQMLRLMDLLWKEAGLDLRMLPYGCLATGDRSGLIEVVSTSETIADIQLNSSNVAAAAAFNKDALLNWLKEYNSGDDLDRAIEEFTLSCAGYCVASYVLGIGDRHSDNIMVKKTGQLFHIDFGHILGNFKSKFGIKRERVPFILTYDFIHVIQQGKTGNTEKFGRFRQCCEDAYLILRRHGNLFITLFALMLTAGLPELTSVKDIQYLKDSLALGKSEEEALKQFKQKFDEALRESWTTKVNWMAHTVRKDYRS
PIK3CG (human), sequence (P48736 whole entry, looked up): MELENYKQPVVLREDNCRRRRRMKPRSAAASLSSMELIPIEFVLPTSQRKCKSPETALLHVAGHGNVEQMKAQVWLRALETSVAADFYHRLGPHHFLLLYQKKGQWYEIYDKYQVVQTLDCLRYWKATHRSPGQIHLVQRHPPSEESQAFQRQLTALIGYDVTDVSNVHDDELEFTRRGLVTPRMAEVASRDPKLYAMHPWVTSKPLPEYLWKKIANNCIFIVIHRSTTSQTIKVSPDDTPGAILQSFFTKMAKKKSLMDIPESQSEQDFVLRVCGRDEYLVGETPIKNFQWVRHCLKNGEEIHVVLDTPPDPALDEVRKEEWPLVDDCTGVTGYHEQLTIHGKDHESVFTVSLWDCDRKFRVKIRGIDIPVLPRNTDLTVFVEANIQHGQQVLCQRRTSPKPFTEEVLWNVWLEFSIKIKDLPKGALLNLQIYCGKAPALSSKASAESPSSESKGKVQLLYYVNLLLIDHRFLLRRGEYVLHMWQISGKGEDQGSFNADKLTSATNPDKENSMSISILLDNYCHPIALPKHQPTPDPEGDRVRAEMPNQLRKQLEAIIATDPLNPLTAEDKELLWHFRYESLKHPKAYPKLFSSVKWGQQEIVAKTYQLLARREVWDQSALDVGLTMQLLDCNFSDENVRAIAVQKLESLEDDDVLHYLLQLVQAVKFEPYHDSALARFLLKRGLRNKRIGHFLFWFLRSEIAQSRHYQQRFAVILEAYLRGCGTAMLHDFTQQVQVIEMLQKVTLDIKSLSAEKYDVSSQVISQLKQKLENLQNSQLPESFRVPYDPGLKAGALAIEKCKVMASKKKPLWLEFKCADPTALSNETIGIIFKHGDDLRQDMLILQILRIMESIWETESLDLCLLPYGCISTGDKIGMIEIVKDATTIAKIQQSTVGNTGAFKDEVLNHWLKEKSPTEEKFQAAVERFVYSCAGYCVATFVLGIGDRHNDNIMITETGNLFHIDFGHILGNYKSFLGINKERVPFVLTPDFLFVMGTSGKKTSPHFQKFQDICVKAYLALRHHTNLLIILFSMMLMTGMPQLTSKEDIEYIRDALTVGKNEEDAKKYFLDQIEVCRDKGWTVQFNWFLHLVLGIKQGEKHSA

`CC(C)c1nc2ccccc2n1-c1nc(N2CCOCC2)c2nc(OC3CN(C4CCS(=O)(=O)CC4)C3)n(C)c2n1` showed a Ki at PIK3CD (Human) of 0.4 nM.

Turning to `CN(C)CCN(C)C(=O)c1ccc(NC(=O)Nc2ccc(-c3nc(N4CCOCC4)c4ccn(CC(F)(F)F)c4n3)cc2)cc1`, on PIK3CA (human), the IC50 worked out at 2.4 nM.

On PIK3CA (human), `CN(C)CCCNC(=O)c1cn2cc(-c3cccc4[nH]ncc34)nc(N3CCOCC3)c2n1` returned an IC50 of 35 nM.

Take `O=C(c1ccccc1)c1ccc(N2CCOCC2)cc1O`: the IC50 on PIK3CB (Human) was 3700 nM.

For `CCOC(=O)c1ccc(-c2csc3c(=O)cc(N4CCOCC4)oc23)cc1`, at PIK3CD (Human), the IC50 stood at 12 nM.

In turn, `N#Cc1c(N2CCOCC2)sc(-c2nc[nH]n2)c1-c1ccc(Cl)cc1Cl` returned an IC50 against PIK3CA (human) of 0.35 nM.

For the molecule `CS(=O)(=O)N1CCN(Cc2cc3nc(-c4cnc(N)nc4)nc(N4CCOCC4)c3s2)CC1`, the IC50 against PIK3CD (Human) came out at 16 nM; at PIK3CB (Human), 12 nM.

As to `Cc1c(OCCN2CCN(C)CC2)ccc2c(=O)nc(N3CCOCC3)oc12`, at PIK3CA (human), the IC50 was no less than 100000 nM.

Molecule `Cc1c(Cl)cccc1Cn1c(SCC(=O)O)nc(=O)c2sc(N3CCOCC3)nc21` displayed an IC50 against PIK3CD (Human) of 3 nM.

Turning to `CC1(C)CC(=O)c2sc(N3CCOc4ccccc43)nc2C1`, the values for the IC50 against PIK3CD (Human) and at PIK3CG (human) were 830 nM and 610 nM, respectively.
